Experimental findings from patent publication US20250387400A1, “TYK2 INHIBITORS” (BIOGEN MA INC., priority 2022, published 2025) are described below.

Assay type in all cases: biochemical
The target of assay [1] is T1, catalytic kinase (JH1) domain of human JAK3 (Homo sapiens, UniProt P52333).
T1 construct: Catalytic activities of recombinant JAK2, JAK3 and TYK2 kinase domain
The assay can be described thus: ADP-Glo kinase assay, JAK3 kinase domain. On the procedure:
(§1) As summarized in Table 3 below, compounds of the disclosure were assessed for their ability to inhibit TYK2, JAK1, JAK2, and JAK3 activity.
(§2) The kinase activity of recombinantly generated catalytic kinase (also known as JH1) domain of human JAK1, JAK2, JAK3 and TYK2 were evaluated in a plate-based assay using the ADP-Glo™ Kinase Assay platform. […] The reactions proceed for 100 minutes and the catalytic activity is quantified by first depleting the unused ATP, converting the hydrolyzed ADP into ATP to generate luminescence in a luciferase reaction; which is the basis of the ADP-Glo platform. Compounds are tested at either 10 μM or 1 μM top concentration, 11 points of 3-fold dilution. The data is normalized and the percent activity versus log concentration of compound is fitted with a 4-parameter logistic model to generate a curve and an IC50 value.
(ADP-Glo first removes unused ATP, then detects ADP through luciferase.)

The target in assay [2] is T2, catalytic kinase (JH1) domain of human JAK2 (Homo sapiens, UniProt O60674).
T2 construct: Catalytic activities of recombinant JAK2, JAK3 and TYK2 kinase domain
T2 sequence (O60674 849-1124 limits assumed): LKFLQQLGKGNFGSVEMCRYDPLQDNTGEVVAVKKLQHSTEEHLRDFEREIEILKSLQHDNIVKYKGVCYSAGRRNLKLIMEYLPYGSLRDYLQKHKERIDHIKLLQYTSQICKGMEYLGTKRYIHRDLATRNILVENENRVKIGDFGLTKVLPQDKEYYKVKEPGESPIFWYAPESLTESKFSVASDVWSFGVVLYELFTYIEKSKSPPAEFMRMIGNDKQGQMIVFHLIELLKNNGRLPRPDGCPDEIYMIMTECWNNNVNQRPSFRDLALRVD
The assay can be described thus: ADP-Glo kinase assay, JAK2 kinase domain. On the procedure: as §1, §2

Assay [3] deals with T3, catalytic kinase (JH1) domain of human JAK1 (Homo sapiens, UniProt P23458).
T3 construct: 4 nM of recombinant JAK1 kinase domain is used to phosphorylate
T3 sequence (P23458 875-1153 limits assumed): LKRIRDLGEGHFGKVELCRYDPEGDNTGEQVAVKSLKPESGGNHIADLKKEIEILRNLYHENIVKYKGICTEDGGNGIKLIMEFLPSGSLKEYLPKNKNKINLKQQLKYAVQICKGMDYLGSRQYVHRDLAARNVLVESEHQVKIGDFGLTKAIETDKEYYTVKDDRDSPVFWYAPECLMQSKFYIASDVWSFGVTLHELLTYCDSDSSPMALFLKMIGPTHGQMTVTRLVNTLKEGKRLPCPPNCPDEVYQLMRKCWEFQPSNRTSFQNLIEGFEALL
The assay can be described thus: ADP-Glo kinase assay, JAK1 kinase domain. On the procedure: as §1, §2

The target of assay [4] is T4, catalytic kinase (JH1) domain of human TYK2 (Homo sapiens, UniProt P29597).
T4 construct: recombinantly generated catalytic kinase (also known as JH1) domain of human JAK1, JAK2, JAK3 and TYK2
T4 sequence (P29597 897-1176 limits assumed): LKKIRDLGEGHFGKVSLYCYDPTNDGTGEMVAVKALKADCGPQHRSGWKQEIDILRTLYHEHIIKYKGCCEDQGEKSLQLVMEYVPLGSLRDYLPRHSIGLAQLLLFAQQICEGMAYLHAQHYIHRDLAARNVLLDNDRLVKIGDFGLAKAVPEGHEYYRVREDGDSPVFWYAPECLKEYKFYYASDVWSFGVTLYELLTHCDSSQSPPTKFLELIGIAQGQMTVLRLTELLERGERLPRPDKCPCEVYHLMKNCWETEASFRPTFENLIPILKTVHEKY
The assay can be described thus: ADP-Glo kinase assay, TYK2 kinase domain. On the procedure:
as §1, §2

[5] abbreviates: 0.3 nM recombinant JAK3 kinase domain, 50 μM JAK3-974 peptide, 4 μM ATP, 100 minutes, read-out: JAK3 biochem IC50 (nM) Mean.
Where [6] appears, read: 0.2 nM recombinant JAK2 kinase domain, 50 μM JAK3-974 peptide, 15 μM ATP, 100 minutes, read-out: JAK2 biochem IC50 (nM) Mean.
[7] abbreviates: 4 nM recombinant JAK1 kinase domain, 50 μM JAK3-342 peptide, 35 μM ATP, 100 minutes, read-out: JAK1 biochem IC50 (nM) Mean.
[8] abbreviates: 2 nM recombinant TYK2 kinase domain, 50 μM JAK3-974 peptide, 10 μM ATP, 100 minutes, read-out: TYK2 biochem IC50 (nM) Mean.

Read-outs that look alike come from different tables or passages of the source. Where only a bound is given, the exact number is not on record here.

T1 sequence (P52333 822-1111 limits assumed): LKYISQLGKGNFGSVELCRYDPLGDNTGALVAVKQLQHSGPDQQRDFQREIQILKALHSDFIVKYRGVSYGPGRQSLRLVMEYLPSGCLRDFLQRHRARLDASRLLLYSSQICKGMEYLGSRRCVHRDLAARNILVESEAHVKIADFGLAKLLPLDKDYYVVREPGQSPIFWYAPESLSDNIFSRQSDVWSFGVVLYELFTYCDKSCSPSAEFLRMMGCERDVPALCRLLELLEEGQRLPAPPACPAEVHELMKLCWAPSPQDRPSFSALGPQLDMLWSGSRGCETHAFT

By IC50 is commonly meant the point on the concentration scale where inhibition reaches its midpoint. For the compound `Cn1cc(-c2cc3c(N4CC5CCC(C4)N5[C@H]4C[C@@H](C#N)C4)ncnc3[nH]2)cn1` [Example 64, (1S,3s)-3-(3-(6-(1-methyl-1H-pyrazol-4-yl)-7H-pyrrolo[2,3-d]pyrimidin-4-yl)-3,8-diazabicyclo[3.2.1]octan-8-yl)cyclobutane-1-carbonitrile], the IC50 in assay [1] (setting [5]) was 205 nM; in assay [2] (setting [6]), 260 nM; in assay [3] (setting [7]), 340 nM; in assay [4] (setting [8]), 41.5 nM.
Regarding `COc1cc(-c2cc3c(N4CC5CCC(C4)N5[C@H]4C[C@@H](C#N)C4)ccnc3[nH]2)ccn1` [Example 14, (1S,3s)-3-(3-(2-(2-methoxypyridin-4-yl)-1H-pyrrolo[2,3-b]pyridin-4-yl)-3,8-diazabicyclo[3.2.1]octan-8-yl)cyclobutane-1-carbonitrile], the IC50 was 1800 nM in assay [1], 170 nM in assay [2], 205 nM in assay [3] and 21.5 nM in assay [4].
Regarding `CO[C@H]1C[C@@H](N2C3CCC2CN(c2ccnc4[nH]c(-c5cnn(C)c5)nc24)C3)C1` [Example 6, 7-(8-((1s,3S)-3-methoxycyclobutyl)-3,8-diazabicyclo[3.2.1]octan-3-yl)-2-(1-methyl-1H-pyrazol-4-yl)-3H-imidazo[4,5-b]pyridine], the IC50 in assay [1] (setting [5]) was more than 10000 nM; in assay [2] (setting [6]) it was 1150 nM; in assay [3] (setting [7]) it was 1800 nM; in assay [4] (setting [8]), 305 nM.
As for `Cn1cc(-c2cc3c(N4CC5CCC(C4)N5[C@H]4C[C@@H](C#N)C4)ccnc3[nH]2)cn1` [Example 16, (1S,3s)-3-(3-(2-(1-methyl-1H-pyrazol-4-yl)-1H-pyrrolo[2,3-b]pyridin-4-yl)-3,8-diazabicyclo[3.2.1]octan-8-yl)cyclobutane-1-carbonitrile], the IC50 in assay [1] (setting [5]) worked out at 550 nM; in assay [2] (setting [6]), 117 nM; in assay [3] (setting [7]) it was 315 nM; in assay [4] (setting [8]) it was 17.5 nM.
Consider `Cn1cc(-c2cc3c(N4CC5CCC(C4)N5[C@H]4CCC45COC5)ccnn3c2)cn1` (single isomer, unassigned) [Example 40], for which the IC50 in assay [1] is more than 10000 nM; in assay [2], 1900 nM; in assay [3], more than 10000 nM; in assay [4] it was 320 nM.
With `Cn1cc(-c2cc3c(N4CC5CCC(C4)N5[C@@H]4CCC45COC5)ccnn3c2)cn1` (single isomer, unassigned) [Example 41], the half-inhibitory concentration (IC50) in assay [1] was 8450 nM; in assay [2], 420 nM; in assay [3] it was 2200 nM; in assay [4], 71 nM.
Take `Cn1cc(-c2cc3c(N4CC5CCC(C4)N5C4CC(O)(C(F)(F)F)C4)ccnn3c2)cn1` (stereo not shown) [Example 22, 3-(3-(6-(1-methyl-1H-pyrazol-4-yl)pyrrolo[1,2-b]pyridazin-4-yl)-3,8-diazabicyclo[3.2.1]octan-8-yl)-1-(trifluoromethyl)cyclobutan-1-ol]: the IC50 in assay [1] (setting [5]) is more than 10000 nM; in assay [2] (setting [6]), 1200 nM; in assay [3] (setting [7]), 5200 nM; in assay [4] (setting [8]) it was 305 nM.
Take `COc1cc(-c2cc3c(N4CC5CCC(C4)N5C4CC(C#N)C4)ccnc3[nH]2)ccn1` (stereo not shown) [Example 13, 3-(3-(2-(2-methoxypyridin-4-yl)-1H-pyrrolo[2,3-b]pyridin-4-yl)-3,8-diazabicyclo[3.2.1]octan-8-yl)cyclobutane-1-carbonitrile]: the IC50 in assay [1] is 82 nM; in assay [2], 14 nM; in assay [3], 7.9 nM; in assay [4], 4.05 nM.
Take `Cn1cc(-c2nc3c(N4CC5CCC(C4)N5[C@H]4CC[C@@H]4O)ccnc3[nH]2)cn1` (single isomer, unassigned) [Example 7, (1RS,2RS)-2-(3-(2-(1-methyl-1H-pyrazol-4-yl)-3H-imidazo[4,5-b]pyridin-7-yl)-3,8-diazabicyclo[3.2.1]octan-8-yl)cyclobutan-1-ol]: the IC50 was more than 10000 nM in assay [1] (setting [5]), 3300 nM in assay [2] (setting [6]), more than 10000 nM in assay [3] (setting [7]) and 610 nM in assay [4] (setting [8]).
Turning to `N#CC1CC(N2C3CCC2CN(c2ccnn4cc(-c5ccnnc5)cc24)C3)C1` (stereo not shown) [Example 55, 3-(3-(6-(pyridazin-4-yl)pyrrolo[1,2-b]pyridazin-4-y1)-3,8-diazabicyclo[3.2.1]octan-8-yl)cyclobutane-1-carbonitrile], the IC50 is 625 nM in assay [1], 80.5 nM in assay [2], 130 nM in assay [3] and 11.5 nM in assay [4].
In the case of `Cn1cc(-c2cc3c(N4CC5CCC(C4)N5[C@H]4C[C@H](S(C)(=O)=O)C4)ccnn3c2)cn1` [Example 37, 6-(1-methyl-1H-pyrazol-4-yl)-4-(8-((1r,3r)-3-(methylsulfonyl)cyclobutyl)-3,8-diazabicyclo[3.2.1]octan-3-yl)pyrrolo[1,2-b]pyridazine], the IC50 in assay [1] is more than 10000 nM; in assay [2], 1450 nM; in assay [3], 4300 nM; in assay [4] it was 310 nM.
The corresponding values for `Cn1cc(-c2cc3c(N4CC5CCC(C4)N5[C@H]4C[C@@H](C#N)C4(C)C)ccnn3c2)cn1` (single isomer, unassigned) [Example 47] are 130 nM, 17.3 nM, 72.3 nM and 2.33 nM.
As to `CO[C@H]1CC[C@@H]1N1C2CCC1CN(c1ccnn3cc(-c4cnn(C)c4)cc13)C2` (racemic) [Example 51, Rac-4-(8-((1S,2S)-2-methoxycyclobutyl)-3,8-diazabicyclo[3.2.1]octan-3-yl)-6-(1-methyl-1H-pyrazol-4-yl)pyrrolo[1,2-b]pyridazine], the IC50 in assay [1] was more than 10000 nM; in assay [2], 6050 nM; in assay [3] it was more than 10000 nM; in assay [4], 745 nM.
Consider `Cn1cc(-c2cn3nccc(N4CC5CCC(C4)N5[C@H]4C[C@@H](C#N)C4)c3n2)cn1` [Example 65, (1S,3s)-3-(3-(2-(1-methyl-1H-pyrazol-4-yl)imidazo[1,2-b]pyridazin-8-yl)-3,8-diazabicyclo[3.2.1]octan-8-yl)cyclobutane-1-carbonitrile], for which the IC50 in assay [1] came to 1650 nM; in assay [2], 293 nM; in assay [3] it was 227 nM; in assay [4] it was 70.7 nM.
`Cn1cc(-c2nc3c(N4C[C@H]5CC[C@@H](C4)N5C4CC(C(F)F)C4)ccnc3[nH]2)cn1` (stereo partly drawn) [Example 10, 7-((1R,5S)-8-(3-(difluoromethyl)cyclobutyl)-3,8-diazabicyclo[3.2.1]octan-3-yl)-2-(1-methyl-1H-pyrazol-4-yl)-3H-imidazo[4,5-b]pyridine]: the IC50 in assay [1] (setting [5]) amounted to 1350 nM; in assay [2] (setting [6]) it was 180 nM; in assay [3] (setting [7]), 340 nM; in assay [4] (setting [8]), 226 nM.
The corresponding values for `COc1cc(-c2cc3c(N4CC5CCC(C4)N5C4COC4)ccnc3[nH]2)ccn1` [Example 18, 2-(2-methoxypyridin-4-yl)-4-(8-(oxetan-3-yl)-3,8-diazabicyclo[3.2.1]octan-3-yl)-1H-pyrrolo[2,3-b]pyridine] are more than 1000 nM, 97 nM, 49.5 nM and 30.5 nM.
As to `COc1cc(-c2cc3c(N4CC5CCC(C4)N5[C@H]4C[C@H](C#N)C4)ccnc3[nH]2)ccn1` [Example 15, (1R,3r)-3-(3-(2-(2-methoxypyridin-4-yl)-1H-pyrrolo[2,3-b]pyridin-4-yl)-3,8-diazabicyclo[3.2.1]octan-8-yl)cyclobutane-1-carbonitrile], the IC50 came to 74.3 nM in assay [1], 15 nM in assay [2], 13.7 nM in assay [3] and 2.13 nM in assay [4].
With `CO[C@H]1C[C@@H](N2C3CCC2CN(c2ccnn4cc(-c5cnn(C)c5)cc24)C3)C1` [Example 30, 4-(8-((1s,3S)-3-methoxycyclobutyl)-3,8-diazabicyclo[3.2.1]octan-3-yl)-6-(1-methyl-1H-pyrazol-4-yl)pyrrolo[1,2-b]pyridazine], the IC50 in assay [1] (setting [5]) is more than 10000 nM; in assay [2] (setting [6]), 4670 nM; in assay [3] (setting [7]), more than 10000 nM; in assay [4] (setting [8]), 367 nM.
As for `Cn1cc(-c2nc3c(N4CC5CCC(C4)N5[C@H]4C[C@H](C#N)C4)ccnc3[nH]2)cn1` [Example 3, (1R,3r)-3-(3-(2-(1-methyl-1H-pyrazol-4-yl)-3H-imidazo[4,5-b]pyridin-7-yl)-3,8-diazabicyclo[3.2.1]octan-8-yl)cyclobutane-1-carbonitrile], the IC50 came to 1450 nM in assay [1] (setting [5]), 236 nM in assay [2] (setting [6]), 430 nM in assay [3] (setting [7]) and 44 nM in assay [4] (setting [8]).
